Holding throughout (assay): relative viability (nuclei count vs DMSO), 5 days (fraction); higher = more cells survive
Compound in the test “XMD14-99 + Foretinib”: CN1CCN(CC1)C2=CC(=C(C=C2)NC3=NC(=C(S3)C(=O)C4=C(C=CC=C4Cl)Cl)N)OC [XMD14-99] + COc1cc2c(Oc3ccc(NC(=O)C4(C(=O)Nc5ccc(F)cc5)CC4)cc3F)ccnc2cc1OCCCN1CCOCC1 [Foretinib] (partner 0.25 µM)
Put shortly:
(§1)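 Each reported value is a median over duplicate plates. It expresses relative viability: treated-well nuclei count divided by vehicle-well nuclei count. Lung cancer cell lines in 1536-well plates were dosed by pin tool a day after seeding, alone with one drug or with a fixed anchor-drug dose plus five library-drug doses (not always all listed) in √10 steps, and nuclei were counted after 5 days.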

Compound in the test “XMD14-99 + Lapatinib”: CN1CCN(CC1)C2=CC(=C(C=C2)NC3=NC(=C(S3)C(=O)C4=C(C=CC=C4Cl)Cl)N)OC [XMD14-99] + CS(=O)(=O)CCNCc1ccc(-c2ccc3ncnc(Nc4ccc(OCc5cccc(F)c5)c(Cl)c4)c3c2)o1 [Lapatinib] (partner 2 µM)
Put shortly: as §1

Compound in the test “AZD1208 + OSI-027”: N[C@@H]1CCCN(c2c(/C=C3\SC(=O)NC3=O)cccc2-c2ccccc2)C1 [AZD1208] + COc1cccc2cc(-c3nc([C@H]4CC[C@H](C(=O)O)CC4)n4ncnc(N)c34)[nH]c12 [OSI-027] (partner 0.5 µM)
In short, it runs like this:
as §1

Compound in the test “AZD1208 + Olaparib”: N[C@@H]1CCCN(c2c(/C=C3\SC(=O)NC3=O)cccc2-c2ccccc2)C1 [AZD1208] + O=C(c1cc(Cc2n[nH]c(=O)c3ccccc23)ccc1F)N1CCN(C(=O)C2CC2)CC1 [Olaparib] (partner 8 µM)
In short, it runs like this: as §1

Eight cell lines from the supplement of paper PMC10307832 can be followed below.

As to NCI-H1755, the relative viability with XMD14-99 + Foretinib (first compound 0.08 µM) was 0.916; with XMD14-99 + Foretinib (first compound 0.8 µM) it was 0.9; in the test with XMD14-99 + Foretinib (first compound 2.53 µM), 0.817; with XMD14-99 + Foretinib (first compound 8 µM), 0.687; in the test with XMD14-99 + Lapatinib (first compound 0.08 µM), 1.08; with XMD14-99 + Lapatinib (first compound 0.8 µM), 1.01. The relative viability was 0.955 in the test with XMD14-99 + Lapatinib (first compound 2.53 µM); 0.827 in the test with XMD14-99 + Lapatinib (first compound 8 µM); 0.69 in the test with AZD1208 + OSI-027 (first compound 0.08 µM); 0.617 in the test with AZD1208 + OSI-027 (first compound 0.253 µM); 0.582 with AZD1208 + OSI-027 (first compound 0.8 µM); 0.59 in the test with AZD1208 + OSI-027 (first compound 2.53 µM). Besides, the relative viability came to 0.437 in the test with AZD1208 + OSI-027 (first compound 8 µM); 0.835 with AZD1208 + Olaparib (first compound 0.08 µM); 0.83 with AZD1208 + Olaparib (first compound 0.253 µM); 0.841 in the test with AZD1208 + Olaparib (first compound 0.8 µM); 0.849 with AZD1208 + Olaparib (first compound 2.53 µM); 0.66 with AZD1208 + Olaparib (first compound 8 µM).

Take NCI-H1793: the relative viability in the test with XMD14-99 + Foretinib (first compound 0.08 µM) amounted to 0.704; with XMD14-99 + Foretinib (first compound 0.8 µM), 0.608; with XMD14-99 + Foretinib (first compound 2.53 µM) it was 0.644; with XMD14-99 + Foretinib (first compound 8 µM) it was 0.641; in the test with XMD14-99 + Lapatinib (first compound 0.08 µM), 0.646; with XMD14-99 + Lapatinib (first compound 0.8 µM), 0.729. Further, the relative viability in the test with XMD14-99 + Lapatinib (first compound 2.53 µM) is 0.647; with XMD14-99 + Lapatinib (first compound 8 µM), 0.633; in the test with AZD1208 + OSI-027 (first compound 0.08 µM), 0.244; in the test with AZD1208 + OSI-027 (first compound 0.253 µM), 0.254; with AZD1208 + OSI-027 (first compound 0.8 µM) it was 0.268; with AZD1208 + OSI-027 (first compound 2.53 µM), 0.31. In addition, the relative viability with AZD1208 + OSI-027 (first compound 8 µM) turned out to be 0.25; with AZD1208 + Olaparib (first compound 0.08 µM), 0.878; in the test with AZD1208 + Olaparib (first compound 0.253 µM), 0.649; in the test with AZD1208 + Olaparib (first compound 0.8 µM), 0.767; with AZD1208 + Olaparib (first compound 2.53 µM) it was 0.744; in the test with AZD1208 + Olaparib (first compound 8 µM), 0.675.

For NCI-H1915, the relative viability was found to be 1.06 in the test with XMD14-99 + Foretinib (first compound 0.08 µM); 1.02 with XMD14-99 + Foretinib (first compound 0.8 µM); 0.961 in the test with XMD14-99 + Foretinib (first compound 2.53 µM); 0.859 in the test with XMD14-99 + Foretinib (first compound 8 µM); 1 with XMD14-99 + Lapatinib (first compound 0.08 µM); 0.974 in the test with XMD14-99 + Lapatinib (first compound 0.8 µM). Also, the relative viability in the test with XMD14-99 + Lapatinib (first compound 2.53 µM) was 0.959; in the test with XMD14-99 + Lapatinib (first compound 8 µM), 0.911; in the test with AZD1208 + OSI-027 (first compound 0.08 µM), 0.571; with AZD1208 + OSI-027 (first compound 0.253 µM), 0.524; with AZD1208 + OSI-027 (first compound 0.8 µM), 0.569; with AZD1208 + OSI-027 (first compound 2.53 µM), 0.428. In addition, the relative viability with AZD1208 + OSI-027 (first compound 8 µM) is 0.451; with AZD1208 + Olaparib (first compound 0.08 µM), 0.251; in the test with AZD1208 + Olaparib (first compound 0.253 µM) it was 0.236; with AZD1208 + Olaparib (first compound 0.8 µM) it was 0.261; with AZD1208 + Olaparib (first compound 2.53 µM), 0.218; in the test with AZD1208 + Olaparib (first compound 8 µM) it was 0.238.

As for NCI-H1944, the relative viability with XMD14-99 + Foretinib (first compound 0.08 µM) was found to be 0.886; with XMD14-99 + Foretinib (first compound 0.8 µM) it was 0.841; with XMD14-99 + Foretinib (first compound 2.53 µM), 0.7; with XMD14-99 + Foretinib (first compound 8 µM) it was 0.631; in the test with XMD14-99 + Lapatinib (first compound 0.08 µM), 0.748; with XMD14-99 + Lapatinib (first compound 0.8 µM), 0.828. For the same cell line, the relative viability with XMD14-99 + Lapatinib (first compound 2.53 µM) amounted to 0.843; with XMD14-99 + Lapatinib (first compound 8 µM), 0.613; in the test with AZD1208 + OSI-027 (first compound 0.08 µM), 0.407; in the test with AZD1208 + OSI-027 (first compound 0.253 µM), 0.341; with AZD1208 + OSI-027 (first compound 0.8 µM), 0.305; with AZD1208 + OSI-027 (first compound 2.53 µM), 0.282. Besides, the relative viability in the test with AZD1208 + OSI-027 (first compound 8 µM) is 0.249; with AZD1208 + Olaparib (first compound 0.08 µM) it was 0.387; with AZD1208 + Olaparib (first compound 0.253 µM) it was 0.411; with AZD1208 + Olaparib (first compound 0.8 µM), 0.361; with AZD1208 + Olaparib (first compound 2.53 µM), 0.373; with AZD1208 + Olaparib (first compound 8 µM), 0.344.

For the cell line NCI-H1975, the relative viability was 1.01 with XMD14-99 + Foretinib (first compound 0.08 µM); 0.92 in the test with XMD14-99 + Foretinib (first compound 0.8 µM); 0.924 with XMD14-99 + Foretinib (first compound 2.53 µM); 0.817 with XMD14-99 + Foretinib (first compound 8 µM); 0.906 in the test with XMD14-99 + Lapatinib (first compound 0.08 µM); 0.938 with XMD14-99 + Lapatinib (first compound 0.8 µM). In addition, the relative viability in the test with XMD14-99 + Lapatinib (first compound 2.53 µM) was 0.801; with XMD14-99 + Lapatinib (first compound 8 µM), 0.727; with AZD1208 + OSI-027 (first compound 0.08 µM) it was 0.682; with AZD1208 + OSI-027 (first compound 0.253 µM), 0.688; with AZD1208 + OSI-027 (first compound 0.8 µM), 0.68; with AZD1208 + OSI-027 (first compound 2.53 µM) it was 0.758. For the same cell line, the relative viability with AZD1208 + OSI-027 (first compound 8 µM) amounted to 0.594; with AZD1208 + Olaparib (first compound 0.08 µM), 0.734; in the test with AZD1208 + Olaparib (first compound 0.253 µM), 0.755; in the test with AZD1208 + Olaparib (first compound 0.8 µM), 0.766; with AZD1208 + Olaparib (first compound 2.53 µM) it was 0.883; in the test with AZD1208 + Olaparib (first compound 8 µM), 0.793.

On to NCI-H1993, for which the relative viability in the test with XMD14-99 + Foretinib (first compound 0.08 µM) is 0.804; with XMD14-99 + Foretinib (first compound 0.8 µM) it was 0.674; in the test with XMD14-99 + Foretinib (first compound 2.53 µM), 0.643; with XMD14-99 + Foretinib (first compound 8 µM), 0.595; in the test with XMD14-99 + Lapatinib (first compound 0.08 µM) it was 0.881; in the test with XMD14-99 + Lapatinib (first compound 0.8 µM), 0.767. Moreover, the relative viability in the test with XMD14-99 + Lapatinib (first compound 2.53 µM) is 0.749; in the test with XMD14-99 + Lapatinib (first compound 8 µM), 0.745; in the test with AZD1208 + OSI-027 (first compound 0.08 µM), 0.599; with AZD1208 + OSI-027 (first compound 0.253 µM) it was 0.447; with AZD1208 + OSI-027 (first compound 0.8 µM), 0.616; with AZD1208 + OSI-027 (first compound 2.53 µM), 0.491. In addition, the relative viability came out at 0.536 with AZD1208 + OSI-027 (first compound 8 µM); 0.777 in the test with AZD1208 + Olaparib (first compound 0.08 µM); 0.973 in the test with AZD1208 + Olaparib (first compound 0.253 µM); 0.911 with AZD1208 + Olaparib (first compound 0.8 µM); 0.968 with AZD1208 + Olaparib (first compound 2.53 µM); 0.736 with AZD1208 + Olaparib (first compound 8 µM).

On to NCI-H2009, for which the relative viability with XMD14-99 + Foretinib (first compound 0.08 µM) was found to be 1.21; with XMD14-99 + Foretinib (first compound 0.8 µM) it was 1.25; with XMD14-99 + Foretinib (first compound 2.53 µM) it was 1.14; with XMD14-99 + Foretinib (first compound 8 µM) it was 1.12; in the test with XMD14-99 + Lapatinib (first compound 0.08 µM), 1.03; in the test with XMD14-99 + Lapatinib (first compound 0.8 µM) it was 0.997. The relative viability is 0.834 in the test with XMD14-99 + Lapatinib (first compound 2.53 µM); 0.666 with XMD14-99 + Lapatinib (first compound 8 µM); 0.63 in the test with AZD1208 + OSI-027 (first compound 0.08 µM); 0.645 with AZD1208 + OSI-027 (first compound 0.253 µM); 0.537 with AZD1208 + OSI-027 (first compound 0.8 µM); 0.569 with AZD1208 + OSI-027 (first compound 2.53 µM). Moreover, the relative viability was determined as 0.553 with AZD1208 + OSI-027 (first compound 8 µM); 0.701 with AZD1208 + Olaparib (first compound 0.08 µM); 0.81 in the test with AZD1208 + Olaparib (first compound 0.253 µM); 0.698 with AZD1208 + Olaparib (first compound 0.8 µM); 0.673 with AZD1208 + Olaparib (first compound 2.53 µM); 0.647 with AZD1208 + Olaparib (first compound 8 µM).

On to NCI-H2023, for which the relative viability stood at 0.986 with XMD14-99 + Foretinib (first compound 0.08 µM); 0.842 with XMD14-99 + Foretinib (first compound 0.8 µM); 0.704 in the test with XMD14-99 + Foretinib (first compound 2.53 µM); 0.698 in the test with XMD14-99 + Foretinib (first compound 8 µM); 0.737 with XMD14-99 + Lapatinib (first compound 0.08 µM); 0.989 with XMD14-99 + Lapatinib (first compound 0.8 µM). In addition, the relative viability with XMD14-99 + Lapatinib (first compound 2.53 µM) is 0.828; with XMD14-99 + Lapatinib (first compound 8 µM), 0.372; with AZD1208 + OSI-027 (first compound 0.08 µM), 0.342; in the test with AZD1208 + OSI-027 (first compound 0.253 µM), 0.339; in the test with AZD1208 + OSI-027 (first compound 0.8 µM), 0.324; in the test with AZD1208 + OSI-027 (first compound 2.53 µM) it was 0.316. For the same cell line, the relative viability was determined as 0.253 with AZD1208 + OSI-027 (first compound 8 µM); 0.473 with AZD1208 + Olaparib (first compound 0.08 µM); 0.51 with AZD1208 + Olaparib (first compound 0.253 µM); 0.416 in the test with AZD1208 + Olaparib (first compound 0.8 µM); 0.44 in the test with AZD1208 + Olaparib (first compound 2.53 µM); 0.366 with AZD1208 + Olaparib (first compound 8 µM).
